Measurements: patent publication US12265087B2, “Olfactory receptor as microglia marker and use thereof” (DAEGU GYEONGBUK INSTITUTE OF SCIENCE AND TECHNOLOGY, priority 2019, dated 2025)
“Also recorded” adds a separate entry of the source.

What was measured:
[1] = test system: Olfr111; assay: Luciferase assay in Hana3A cells transfected with Olfr111; assay type: cell-based, mouse; conditions: Hana3A cells
Procedure: A Dual-Glo luciferase assay system (#E2940; Promega) was used for OR ligand screening. More specifically, Hana3A cells were seeded in white polystyrene 96-well plates (#353296; BD Biosciences) one day before transfection. pCRELuc (1 μg; #219076; Agilent Technologies), pRL-SV40 (1 μg; #E2231; Promega), RTP1S (1 μg), and OR (6 μg; or Mock) vectors were transfected for 24 hours in each plate. Analysis was performed using Lipofectamine 2000 (#11668-019; Thermo Fisher Scientific) according to the manufacturer's protocols. Transfected cells were stimulated at 37° C. for 4 hours with various concentrations of diluted odorants in a CD293 medium (#11913-019; Thermo Fisher Scientific). The activity of luciferase was normalized to that of Renilla luciferase. Luminescence was measured using a SpectraMax L microplate reader (Molecular Devices).

[2] = test system: cerebral cortex; assay: Cytokine mRNA in the cerebral cortex after IP injection (qRT-PCR); assay type: in vivo, mouse; conditions: 2-PF injection
From the text: To measure mRNA, RNA was isolated from red blood cells, microglia, astrocytes, Hana3A cells or cerebral cortex cells using a MagNa lyser (Roche Molecular Diagnostics) with TRIzol reagent (Invitrogen, Carlsbad, Calif.) according to the manufacturer's protocols. Afterward, cDNA was synthesized through reverse transcription using isolated mRNA (using PrimeScript™ 1st str and cDNA Synthesis kit-#6110; Takara Bio Inc.). This process was quantitatively measured in real time through quantitative real-time-PCR (using a LightCycler® 480 SYBR Green I Master). The measurement values were calculated using a 2-ΔΔCt method.

[3] = test system: Olfr110; assay: Immunostaining of Olfr110 expression after treatment; assay type: cell-based, mouse
Procedure: Subsequently, cells were washed in PBS, and fixed with 4% paraformaldehyde (#6148; Sigma Aldrich) for 5 minutes. The cells were then incubated in PBS containing 4% normal horse serum (#008-000-121; Jackson ImmunoResearch) and 0.1% TWEEN® 20 (#P9416; Sigma-Aldrich) at room temperature for 1 hour. Afterward, the cells were […] at 4° C. overnight with primary antibodies listed below. The antibodies are as follows: Olfr110 (rabbit-anti-Olfr110; 1:10,000; #ab177327; Abcam), Iba-1 (goat-anti-Iba-1; 1:1,000; #ab5076; Abcam), and GFAP (mouse-anti-GFAP; 1:1,000; #556330; BD Biosciences). Samples were incubated in a PBS solution containing 0.1% TWEEN® 20 (#P9416; Sigma-Aldrich) with secondary antibodies at room temperature for 1 hour. The secondary antibodies are as follows: Cy3-conjugated donkey anti-rabbit IgG (1:1,000; #711-165-152; Jackson ImmunoResearch), Alexa488-conjugated donkey anti-goat IgG (1:1,000; #705-545-147; Jackson ImmunoResearch), and Alexa488-conjugated donkey anti-mouse IgG (1:1,000; #715-545-150; Jackson ImmunoResearch). Afterward, the cells were mounted with a Vectashield fluorescent material containing DAPI (#H-1200; Vector Laboratories), and images were obtained using a confocal laser scanning microscope, LSM 700, and the ZEN software (Zeiss). […]

[4] = test system: primary microglia; assay: Western blotting of phosphorylated signaling proteins in primary microglia; assay type: cell-based, mouse; conditions: 0-30 min after treatment
Procedure: Cells and tissue were prepared using the T-PER® reagent (#78510; Thermo Fisher Scientific) containing protease inhibitors (#04-693-116-001; Roche Molecular Diagnostics) and DMSF (Sigma-Aldrich), and then lysed using a MagNA lyser (Roche Molecular Diagnostics). A total protein extract was quantified by the Bradford assay. The samples were dissolved in 7.5% SDS-PAGE or 4-20% gradient mini-PROTEIN TGX Precast Gels (#456-1064; Bio-Rad Laboratories), and then blotted on nitrocellulose membranes (#10600002; GE Healthcare). Afterward, the membranes were blocked for 1 hour in 5% non-fat dry milk and TBST, 0.1% TWEEN® 20 (#P9416; Sigma-Aldrich), and Tris-buffered saline, and then incubated with primary antibodies at 4° C. overnight. The antibodies were as follows: Olfr110 (36 kDa; 1:1,000; #ab177327; Abcam), anti-rhodopsin (39 kDa; 1:1,000; #MABN15; Millipore), CREB (43 kDa; 1:1,000; #9197; Cell Signaling Technology), phospho-CREB (43 kDa; 1:1,000; #9198; Cell Signaling Technology), ERK (44 kDa; 1:1,000; #sc094; Santa Cruz), phospho-ERK (42, 44 kDa; 1:1,000; #sc-7383; Santa Cruz), phospho-Akt (60 kDa; 1:500; sc-293125; Santa Cruz), phospho-JNK (46, 54 kDa; 1:500; sc-6254; Santa Cruz), phosphor-p38 (38 kDa; 1:1,000; sc-7973; Santa Cruz), and beta-Actin (45 kDa; 1:10,000; #4967; Cell Signaling Technology). In addition, as isotype-matched horseradish peroxidase-conjugated secondary antibodies, anti-rabbit IgG (#711-035-152; Jackson ImmunoResearch) diluted 1:100,000, and anti-mouse IgG (#715-035-150; Jackson ImmunoResearch) diluted 1:40,000 in TBST were used at room temperature for 2 hours. Immunoreactive protein bands were obtained using SuperSignal™ West Pico Chemiluminescent Substrate (#34080; Thermo Fisher Scientific).

For `CCCCCc1ccco1` [2-PF, 2-pentylfuran], the “reactivity with Olfr111 (relative luciferase activity)” value [1] was “selective ligands; also recorded: showed reactivity”, the “expression level of inflammatory cytokines (Tnf, Il6, Il1b, Il10)” value [2] was “significantly increased” and the Olfr110 protein level [3] was “significantly increases”. The “phosphorylation levels of ERK, p38, JNK and Akt” value [4] was “increased from 2 minutes and stopped increasing at 20 minutes”.
